Source: PubChem BioAssay (NCI)
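How tested: cells in 96-well plates exposed to compound for 48 hours at five concentrations. GI50: concentration for 50% inhibition of growth. At the TGI there is no net growth.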

Legend:
Assay in all cases: NCI tumour cell line growth inhibition, 48 h
SW-620 colon = tested on: SW-620 colon
OVCAR-5 ovarian = tested on: OVCAR-5 ovarian
UACC-257 melanoma = tested on: UACC-257 melanoma
OVCAR-8 ovarian = tested on: OVCAR-8 ovarian
SK-MEL-2 melanoma = tested on: SK-MEL-2 melanoma
COLO 205 colon = tested on: COLO 205 colon
HS 578T breast = tested on: HS 578T breast
EKVX NSCLC = tested on: EKVX NSCLC
HT29 colon = tested on: HT29 colon
SK-MEL-28 melanoma = tested on: SK-MEL-28 melanoma
SNB-75 CNS = tested on: SNB-75 CNS
UO-31 renal = tested on: UO-31 renal
SF-539 CNS = tested on: SF-539 CNS
CAKI-1 renal = tested on: CAKI-1 renal
NCI/ADR-RES ovarian = tested on: NCI/ADR-RES ovarian
SK-OV-3 ovarian = tested on: SK-OV-3 ovarian
HCC-2998 colon = tested on: HCC-2998 colon
DU-145 prostate = tested on: DU-145 prostate
SF-295 CNS = tested on: SF-295 CNS
M14 melanoma = tested on: M14 melanoma
OVCAR-3 ovarian = tested on: OVCAR-3 ovarian
PC-3 prostate = tested on: PC-3 prostate
RPMI-8226 leukemia = tested on: RPMI-8226 leukemia
SN12C renal = tested on: SN12C renal
TK-10 renal = tested on: TK-10 renal
ACHN renal = tested on: ACHN renal
HCT-116 colon = tested on: HCT-116 colon
MALME-3M melanoma = tested on: MALME-3M melanoma
MCF7 breast = tested on: MCF7 breast
RXF 393 renal = tested on: RXF 393 renal
IGROV1 ovarian = tested on: IGROV1 ovarian
BT-549 breast = tested on: BT-549 breast
CCRF-CEM leukemia = tested on: CCRF-CEM leukemia
NCI-H23 lung = tested on: NCI-H23 lung
NCI-H522 lung = tested on: NCI-H522 lung
SR leukemia = tested on: SR leukemia
MDA-MB-231 breast = tested on: MDA-MB-231 breast
A549 NSCLC = tested on: A549 NSCLC
HOP-62 NSCLC = tested on: HOP-62 NSCLC
KM12 colon = tested on: KM12 colon
K-562 leukemia = tested on: K-562 leukemia
SK-MEL-5 melanoma = tested on: SK-MEL-5 melanoma
LOX IMVI melanoma = tested on: LOX IMVI melanoma
UACC-62 melanoma = tested on: UACC-62 melanoma
MDA-MB-435 = tested on: MDA-MB-435
786-0 renal = tested on: 786-0 renal
NCI-H460 lung = tested on: NCI-H460 lung
HCT-15 colon = tested on: HCT-15 colon
NCI-H226 lung = tested on: NCI-H226 lung

## Cc1cn2c(/C=N/N=C(N)N)c(-c3ccc(Cl)c([N+](=O)[O-])c3)nc2s1
SW-620 colon
  TGI: > 100000 nM
OVCAR-5 ovarian
  TGI: 2410 nM
UACC-257 melanoma
  TGI: > 100000 nM
OVCAR-8 ovarian
  TGI: > 100000 nM
SK-MEL-2 melanoma
  TGI: 1600 nM
COLO 205 colon
  TGI: 1880 nM
HS 578T breast
  TGI: > 100000 nM
EKVX NSCLC
  TGI: 2100 nM
HT29 colon
  TGI: 2720 nM
SK-MEL-28 melanoma
  TGI: 3050 nM
SNB-75 CNS
  TGI: 2370 nM
UO-31 renal
  TGI: 3400 nM
SF-539 CNS
  TGI: 3110 nM
CAKI-1 renal
  TGI: > 100000 nM
NCI/ADR-RES ovarian
  TGI: > 100000 nM
SK-OV-3 ovarian
  TGI: 3150 nM

## CN(C)CCNc1nc2ccccc2c2c(=O)c3cc(F)ccc3sc12
HCC-2998 colon
  GI50: 1680 nM
  TGI: 3230 nM
DU-145 prostate
  GI50: 1770 nM
  TGI: 3210 nM
SW-620 colon
  GI50: 1670 nM
  TGI: 3230 nM
OVCAR-5 ovarian
  GI50: 1580 nM
  TGI: 2950 nM
UACC-257 melanoma
  GI50: 2120 nM
  TGI: 4160 nM
SK-MEL-2 melanoma
  GI50: 2050 nM
  TGI: 4060 nM
SF-295 CNS
  GI50: 1760 nM
  TGI: 3220 nM
M14 melanoma
  GI50: 1900 nM
  TGI: 3550 nM
OVCAR-3 ovarian
  GI50: 1840 nM
  TGI: 3330 nM
PC-3 prostate
  GI50: 1700 nM
  TGI: 3370 nM
RPMI-8226 leukemia
  GI50: 2300 nM
  TGI: 5180 nM
SN12C renal
  GI50: 1570 nM
  TGI: 3000 nM
TK-10 renal
  GI50: 1760 nM
  TGI: 3330 nM
ACHN renal
  GI50: 1650 nM
  TGI: 3010 nM
COLO 205 colon
  GI50: 2130 nM
  TGI: 4860 nM
HCT-116 colon
  GI50: 1580 nM
  TGI: 3080 nM
MALME-3M melanoma
  GI50: 1650 nM
  TGI: 3150 nM
MCF7 breast
  GI50: 1620 nM
  TGI: 3220 nM
RXF 393 renal
  GI50: 1450 nM
  TGI: 2830 nM
IGROV1 ovarian
  GI50: 1530 nM
  TGI: 2990 nM
BT-549 breast
  GI50: 3520 nM
  TGI: > 100000 nM
CCRF-CEM leukemia
  GI50: 2220 nM
  TGI: 5000 nM
NCI-H23 lung
  GI50: 1790 nM
  TGI: 3260 nM
HT29 colon
  GI50: 1680 nM
  TGI: 3480 nM
NCI-H522 lung
  GI50: 1860 nM
  TGI: 3790 nM
SK-MEL-28 melanoma
  GI50: 1790 nM
  TGI: 3230 nM
SR leukemia
  GI50: 3270 nM
  TGI: > 100000 nM
MDA-MB-231 breast
  GI50: 1470 nM
  TGI: 2880 nM
A549 NSCLC
  GI50: 2100 nM
  TGI: 4830 nM
SNB-75 CNS
  GI50: 1450 nM
  TGI: 2800 nM
HOP-62 NSCLC
  GI50: 1890 nM
  TGI: 3930 nM
KM12 colon
  GI50: 1930 nM
  TGI: 3560 nM
UO-31 renal
  GI50: 1400 nM
  TGI: 2730 nM
K-562 leukemia
  GI50: 2000 nM
  TGI: 4840 nM
SK-MEL-5 melanoma
  GI50: 1700 nM
  TGI: 3080 nM
SF-539 CNS
  GI50: 1670 nM
  TGI: 3070 nM
LOX IMVI melanoma
  GI50: 1630 nM
  TGI: 3030 nM
UACC-62 melanoma
  GI50: 1730 nM
  TGI: 3180 nM
CAKI-1 renal
  GI50: 1580 nM
  TGI: 2930 nM
NCI/ADR-RES ovarian
  GI50: 1630 nM
  TGI: 3060 nM
MDA-MB-435
  GI50: 1660 nM
  TGI: 3060 nM
786-0 renal
  GI50: 1470 nM
  TGI: 2910 nM
NCI-H460 lung
  GI50: 1790 nM
  TGI: 3420 nM
HCT-15 colon
  GI50: 1570 nM
  TGI: 3080 nM
NCI-H226 lung
  GI50: 1610 nM
  TGI: 3140 nM
